The target in one assay is human RORgammaT-Ligand Binding Domain (LBD) (Homo sapiens (Human), UniProt P51449). Kind of assay: RORγ-Ligand Binding Domain TR-FRET assay (co-activator peptide SRC1_2 recruitment). It is filed as biochemical. As to conditions: Fret IC50 (nM), HIS-tagged RORγ-LBD 3 nM, biotinylated SRC1 LXXLL peptide 100 nM, incubated overnight at 4° C., 665 nm/615 nm signal quotient. An excerpt: Activation of RORgammaT activity can be measured using, e.g., biochemical TR-FRET assay. In such an assay, interaction of cofactor-derived peptides with human RORgammaT-Ligand Binding Domain (LBD) can be measured.
human RORgammaT-Ligand Binding Domain (LBD), sequence (P51449 269-508): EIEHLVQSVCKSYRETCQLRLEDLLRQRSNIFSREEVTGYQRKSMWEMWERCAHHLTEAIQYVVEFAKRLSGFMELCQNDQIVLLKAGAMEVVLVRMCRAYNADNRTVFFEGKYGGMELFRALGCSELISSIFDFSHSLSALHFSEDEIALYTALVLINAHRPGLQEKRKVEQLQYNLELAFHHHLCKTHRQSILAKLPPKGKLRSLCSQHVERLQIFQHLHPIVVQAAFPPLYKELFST
To identify novel antagonists of RORgammaT, an assay was developed which employs the interaction of RORgammaT with its co-activator peptide SRC1_2. […] The RORγ-Ligand Binding Domain TR-FRET Assay was run according to the following protocol.
HIS-tagged RORγ-LBD protein was expressed in SF9 cells using a baculovirus expression system. The RORγ-LBD protein was purified by glutathione sepharose chromatography. Separately, SF9 cells not expressing any recombinant protein were lysed and the lysate was added to the purified RORγ-LBD at 0.25 μl lysate (from 10,000 SF9 cells)/nM purified protein. The mixture was then diluted in assay buffer (50 mM Tris pH 7.0, 50 mM KCl, 1 mM EDTA, 0.1 mM DTT) to obtain RORγ-LBD final concentration of 3 nM in 384-well assay plate.
Compounds to be tested were injected to the assay plate using Acoustic Droplet Ejection technology by Echo 550 liquid handler (Labcyte, Calif.).
In general terms: TR-FRET usually uses a lanthanide donor and a delayed reading to cut background.
Usually IC50 stands for the concentration that inhibits the measured activity by half. Molecule `CC1(C)C=C(c2nn(C(=O)c3c(Cl)cccc3C(F)(F)F)c3cccc(F)c23)CCC1C(=O)O` (racemic) [Example 10A, (R and S)-4-(1-(2-chloro-6-(trifluoromethyl)benzoyl)-4-fluoro-1H-indazol-3-yl)-2,2-dimethylcyclohex-3-enecarboxylic acid] gave an IC50 of 343 nM.

Still in this assay, the particulars now being: HIS-tagged RORγ-LBD 3 nM, biotinylated SRC1 LXXLL peptide 100 nM, incubated overnight at 4° C., 665 nm/615 nm signal quotient; read-out: Fret IC50.
Regarding `COCCN(C)C(=O)c1ccc2c(C3=CCC(C(=O)O)CC3)nn(C(=O)c3c(Cl)cccc3C(F)(F)F)c2c1` (centres unmarked) [Example 4V, 4-(1-(2-chloro-6-(trifluoromethyl)benzoyl)-6-((2-methoxyethyl)(methyl)carbamoyl)-1H-indazol-3-yl)cyclohex-3-enecarboxylic acid], the IC50 is 31 nM.
For the molecule `C[C@@H]1COCCN1C(=O)c1ccc2c(C3=CCC(C(=O)O)CC3)nn(C(=O)c3c(Cl)cccc3C(F)(F)F)c2c1` (stereo partly drawn) [Example 4Q, 4-(1-(2-chloro-6-(trifluoromethyl)benzoyl)-6-((R)-3-methylmorpholine-4-carbonyl)-1H-indazol-3-yl)cyclohex-3-enecarboxylic acid], the IC50 worked out at 380 nM.
Consider `CN(C(=O)c1ccc2c(C3=CCC(C(=O)O)CC3)nn(C(=O)c3c(Cl)cccc3C(F)(F)F)c2c1)C1CCCCC1` (centres unmarked) [Example 4K, 4-(1-(2-chloro-6-(trifluoromethyl)benzoyl)-6-(cyclohexyl(methyl)carbamoyl)-1H-indazol-3-yl)cyclohex-3-enecarboxylic acid], for which the IC50 amounted to 94 nM.
Still for that read-out and setting: to `O=C(O)C1CC=C(c2nn(C(=O)c3c(Cl)cccc3C(F)(F)F)c3cc(C(=O)N4CCCCC4)ccc23)CC1` (centres unmarked) [Example 4Y, 4-(1-(2-chloro-6-(trifluoromethyl)benzoyl)-6-(piperidine-1-carbonyl)-1H-indazol-3-yl)cyclohex-3-enecarboxylic acid] belongs 159 nM; to `O=C(O)C1CC=C(c2nn(C(=O)c3c(Cl)cccc3C(F)(F)F)c3cc(C(=O)N4CCC4)ccc23)CC1` (centres unmarked) [Example 4D, 4-(6-(azetidine-1-carbonyl)-1-(2-chloro-6-(trifluoromethyl)benzoyl)-1H-indazol-3-yl)cyclohex-3-enecarboxylic acid], 177 nM; to `C[C@]1(c2nn(C(=O)c3c(Cl)cccc3C(F)(F)F)c3cccc(F)c32)CC[C@H](C(=O)O)CC1` [Example 7B, (trans)-4-(1-(2-chloro-6-(trifluoromethyl)benzoyl)-4-fluoro-1H-indazol-3-yl)-4-methyl cyclohexanecarboxylic acid], 663 nM.
The same measure, in the same setting: to `O=C(O)C1CCC(c2nn(C(=O)c3c(Cl)cccc3C(F)(F)F)c3cccc(F)c23)=CC1O` (centres unmarked) [Example 6A, 4-(1-(2-chloro-6-(trifluoromethyl)benzoyl)-4-fluoro-1H-indazol-3-yl)-2-hydroxycyclohex-3-enecarboxylic acid] belongs 2 nM; to `C[C@H]1CN(C(=O)c2ccc3c(C4=CCC(C(=O)O)CC4)nn(C(=O)c4c(Cl)cccc4C(F)(F)F)c3c2)CCO1` (stereo partly drawn) [Example 4R, 4-(1-(2-chloro-6-(trifluoromethyl)benzoyl)-6-((S)-2-methylmorpholine-4-carbonyl)-1H-indazol-3-yl)cyclohex-3-enecarboxylic acid], 21 nM.
Turning to `O=C(c1c(Cl)cccc1C(F)(F)F)n1nc([C@H]2CC[C@@H](C(=O)O)CC2)c2ncccc21` [Example 11B, (cis)-4-(1-(2-chloro-6-(trifluoromethyl)benzoyl)-1H-pyrazolo[4,3-b]pyridin-3-yl)cyclohexanecarboxylic acid], the IC50 amounted to 10000 nM.
Same read-out and setting: then `CN1CCN(C(=O)c2ccc3c(C4=CCC(C(=O)O)CC4)nn(C(=O)c4c(Cl)cccc4C(F)(F)F)c3c2)CC1=O` (centres unmarked) [Example 4N, 4-(1-(2-chloro-6-(trifluoromethyl)benzoyl)-6-(4-methyl-3-oxopiperazine-1-carbonyl)-1H-indazol-3-yl)cyclohex-3-enecarboxylic acid], with 3 nM; and `COC1CN(C(=O)c2ccc3c(C4=CCC(C(=O)O)CC4)nn(C(=O)c4c(Cl)cccc4C4CC4)c3c2)C1` (single isomer, unassigned) [Example 2A, (R or S)-4-(1-(2-chloro-6-cyclopropylbenzoyl)-6-(3-methoxyazetidine-1-carbonyl)-1H-indazol-3-yl)cyclohex-3-enecarboxylic acid], with 2 nM; and `O=C(c1c(Cl)cccc1C(F)(F)F)n1nc([C@H]2CC[C@H](C(=O)O)CC2)c2ncccc21` [Example 11A, (trans)-4-(1-(2-chloro-6-(trifluoromethyl)benzoyl)-1H-pyrazolo[4,3-b]pyridin-3-yl)cyclohexanecarboxylic acid], with 207 nM.
On the same count and under the same terms, then `C[C@H]1COCCN1C(=O)c1ccc2c(C3=CCC(C(=O)O)CC3)nn(C(=O)c3c(Cl)cccc3C(F)(F)F)c2c1` (stereo partly drawn) [Example 4O, 4-(1-(2-chloro-6-(trifluoromethyl)benzoyl)-6-((S)-3-methylmorpholinc-4-carbonyl)-1H-indazol-3-yl)cyclohex-3-enecarboxylic acid], with 308 nM.
On the same count and under the same terms, to `Cc1cccc(Cl)c1C(=O)n1nc(C2=CCC(C(=O)O)CC2)c2c(F)cccc21` (centres unmarked) [Example 1K, 4-(1-(2-chloro-6-methylbenzoyl)-4-fluoro-1H-indazol-3-yl)cyclo-hex-3-enecarboxylic acid] belongs 31 nM; to `COC1CN(C(=O)c2ccc3c(C4=CC[C@](C)(C(=O)O)CC4)nn(C(=O)c4c(Cl)cccc4C4CC4)c3c2)C1` (single isomer, unassigned) [Example 2C, (R or S)-4-(1-(2-chloro-6-cyclopropylbenzoyl)-6-(3-methoxyazetidine-1-carbonyl)-1H-indazol-3-yl)-1-methylcyclohex-3-enecarboxylic acid], 4 nM.
Turning to `CNCC(CO)OC(=O)c1ccc2c(C3=CCC(C(=O)O)CC3)nn(C(=O)c3c(Cl)cccc3C(F)(F)F)c2c1` (centres unmarked) [Example 4Z, 4-(1-(2-chloro-6-(trifluoromethyl)benzoyl)-6-(((1-hydroxy-3-(methylamino)propan-2-yl)oxy)carbonyl)-1H-indazol-3-yl)cyclohex-3-enecarboxylic acid], the IC50 was 258 nM.
Take `CN(C(=O)c1ccc2c(C3=CCC(C(=O)O)CC3)nn(C(=O)c3c(Cl)cccc3C(F)(F)F)c2c1)C1CCOCC1` (centres unmarked) [Example 4P, 4-(1-(2-chloro-6-(trifluoromethyl)benzoyl)-6-(methyl(tetrahydro-2H-pyran-4-yl)carbamoyl)-1H-indazol-3-yl)cyclohex-3-enecarboxylic acid]: the IC50 turned out to be 41 nM.
As for `CN(C(=O)c1ccc2c(C3=CCC(C(=O)O)CC3)nn(C(=O)c3c(Cl)cccc3C(F)(F)F)c2c1)C1CC1` (centres unmarked) [Example 4C, 4-(1-(2-chloro-6-(trifluoromethyl)benzoyl)-6-(cyclopropyl(methyl)carbamoyl)-1H-indazol-3-yl)cyclohex-3-enecarboxylic acid], the IC50 is 9 nM.
`CC1(c2nn(C(=O)c3c(Cl)cccc3C(F)(F)F)c3cccc(F)c23)CCC(C(=O)O)CC1` (centres unmarked) [Example 7A, 4-(1-(2-chloro-6-(trifluoromethyl)benzoyl)-4-fluoro-1H-indazol-3-yl)-4-methylcyclohexanecarboxylic acid]: the IC50 amounted to 1880 nM.
Still for that read-out and setting: to `Cc1cccc(Cl)c1C(=O)n1nc(C2=CCC(C(=O)O)CC2)c2ncccc21` (centres unmarked) [Example 1L, 4-(1-(2-chloro-6-methylbenzoyl)-1H-pyrazolo[4,3-b]pyridine-3-yl)cyclohex-3-enecarboxylic acid] belongs 123 nM; to `O=C(O)C1CC=C(c2nn(C(=O)c3c(Cl)cccc3C(F)(F)F)c3cc(C(=O)N4CC(F)(F)C4)ccc23)CC1` (centres unmarked) [Example 4A, 4-(1-(2-chloro-6-(trifluoromethyl)benzoyl)-6-(3,3-difluoroazetidine-1-carbonyl)-1H-indazol-3-yl)cyclohex-3-enecarboxylic acid], 5 nM.
Same read-out and setting: to `CN(CCO)C(=O)c1ccc2c(C3=CCC(C(=O)O)CC3)nn(C(=O)c3c(Cl)cccc3C(F)(F)F)c2c1` (centres unmarked) [Example 4S, 4-(1-(2-chloro-6-(trifluoromethyl)benzoyl)-6-((2-hydroxyethyl)(methyl)carbamoyl)-1H-indazol-3-yl)cyclohex-3-enecarboxylic acid] belongs 40 nM; to `O=C(NC1CC1)c1ccc2c(C3=CCC(C(=O)O)CC3)nn(C(=O)c3c(Cl)cccc3C(F)(F)F)c2c1` (centres unmarked) [Example 4B, 4-(1-(2-chloro-6-(trifluoromethyl)benzoyl)-6-(cyclopropylcarbamoyl)-1H-indazol-3-yl)cyclohex-3-enecarboxylic acid], 143 nM.
On the same count and under the same terms, then `O=C(O)C1CC=C(c2nn(C(=O)c3c(Cl)cccc3C(F)(F)F)c3cccc(F)c23)CC1O` (centres unmarked) [Example 6B, 4-(1-(2-chloro-6-(trifluoromethyl)benzoyl)-4-fluoro-1H-indazol-3-yl)-6-hydroxycyclohex-3-enecarboxylic acid], with 15 nM.
As for `O=C(NCCO)c1ccc2c(C3=CCC(C(=O)O)CC3)nn(C(=O)c3c(Cl)cccc3C(F)(F)F)c2c1` (centres unmarked) [Example 1D, 4-(1-(2-chloro-6-(trifluoromethyl)benzoyl)-6-(2-hydroxyethylcarbamoyl)-1H-indazol-3-yl)cyclohex-3-enecarboxylic acid], the 50% inhibitory concentration (IC50) amounted to 774 nM.
